Data as given in patent US20110098216A1 (REGEN THERAPEUTICS PLC, priority 2009, published 2011).

Experiments:
[1] = test system: polychromatic erythrocytes in bone marrow of male and female ICR mice; conditions: definitive study, male and female mice, 24 or 48 h after dose; CP 50 mg/kg; Kastenbaum-Bowman Tables
Description: (§1) The assay was performed in two phases. The first phase, pilot toxicity study, was designed to assess toxicity of the test article and set dose levels for the definitive study. The second phase, the definitive micronucleus study, was designed to evaluate the potential of the test article to increase the incidence of micronucleated polychromatic erythrocytes in bone marrow of male and female ICR mice.
(§2) Phosphate buffered saline (PBS) was used as the test article vehicle. The test article was a workable suspension in PBS at 100 mg/mL, the maximum concentration prepared and tested in this study. […] In both phases of the study, test or control articles were administered at a dose volume of 20 mL/kg body weight via a single oral gavage dose.
(§3) The definitive micronucleus study consisted of seven groups, each containing 5 male and female ICR mice. […] An additional group of 5 male and 5 female ICR mice were treated with 2000 mg/kg to be used as possible replacement animals for the high dose in the event of mortality. […] Bone marrow cells [polychromatic erythrocytes (2000 PCEs/animal)] collected 24 and 48 hours after treatment were examined microscopically for the presence of micronuclei.

[2] = test system: male and female ICR mice; conditions: mouse, in vivo
Description: as §1, §2, §3

[3] = test system: Chinese hamster ovary (CHO) cells; test: Chromosome aberration assay in CHO cells; type: cell-based; conditions: preliminary toxicity assay, any dose level up to 5000 μg/mL, all three exposure groups
Description: A preliminary toxicity test was performed to establish the dose range for the chromosome aberration assay. The chromosome aberration assay was used to evaluate the clastogenic potential of the test article. The dosing solution concentrations were adjusted to compensate for the protein content (13.6%) of the test article using a correction factor of 7.35.
In order to evaluate the toxic effect of lactose alone on the test system, α-Lactose monohydrate was tested as reference article at the same percentage of lactose as in the highest test article dose formulation in the preliminary toxicity assay. McCoy's media (complete medium for the non-activated test system and serum-free medium for the S9-activated test system) were the solvents of choice based on the solubility of the test article and compatibility with the target cells. […] The reference article was soluble in McCoy's complete and serum-free media at the dose level tested in the preliminary toxicity assay.
In the preliminary toxicity assay, the maximum dose tested was 5000 μg/mL. […] The reference article was soluble in complete medium and serum-free medium at 31.76 mg/mL at the beginning and conclusion of the treatment period. […]

[4] = test system: Salmonella typhimurium tester strains TA98, TA100, TA1535 and TA1537 and Escherichia coli tester strain WP2 uvrA; test: Bacterial Reverse Mutation Assay (plate incorporation method); conditions: initial toxicity-mutation assay with lactose, maximum dose 31765 μg per plate
Description: (§4) The dose levels tested were 1.5, 5.0, 15, 50, 150, 500, 1500 and 5000 μg per plate.
Based on the findings of the initial toxicity-mutation assay, the maximum dose plated in the confirmatory mutagenicity assay was 5000 μg per plate.
(§5) The dose levels tested were 50, 150, 500, 1500 and 5000 μg per plate.

[5] = Solubility and precipitation in water / on plates (mutation assay); type: physicochemical; conditions: initial toxicity-mutation assay with lactose, up to 31765 μg per plate
Description: as §4, §5

Row | SMILES | incidence of micronucleated polychromatic erythrocytes relative to vehicle control [1] | mortality and clinical signs [2] | substantial toxicity (at least 50% cell growth inhibition relative to solvent control) [3] | toxicity [4] | precipitate [5]
1 | O=P1(N(CCCl)CCCl)NCCCO1 (centres unmarked) [CP, cyclophosphamide monohydrate] | significant increase |  |  |  | 
2 | O.OC[C@H]1O[C@@H](O[C@H]2[C@H](O)[C@@H](O)[C@@H](O)O[C@@H]2CO)[C@H](O)[C@@H](O)[C@H]1O [α-Lactose monohydrate] |  | no clinical signs | not observed | Neither precipitate nor appreciable toxicity | Neither precipitate
